Results as given in patent US12540143B2, “Methods and compositions for targeted protein degradation” (Ranok Therapeutics (Hangzhou) Co. Ltd., priority 2019, dated 2026).
Where a name gives a salt, the structure may show the parent alone. Read-outs that look alike come from different tables or passages of the source.

Test system: MV4-11 cells
Test: MV4-11 Cytotoxicity Assay
Format: cell-based, human
Details: read-out: MV4-11 cytotoxicity
[1] = Homo sapiens, MV4-11, 72 hr, CCK-8

Row | SMILES | IC50 [1] [nM] | also measured
1 | Cc1sc2c(c1C)C(c1ccc(Cl)cc1)=NC(CC(=O)N[C@H](C)c1ccc(CN3CCN(Cc4ccc(-n5c(O)nnc5-c5cc(C(C)C)c(O)cc5O)cc4)CC3)cc1)c1nnc(C)n1-2 (stereo in doubt) [Compound 70, 2-((6S)-4-(4-chlorophenyl)-2,3,9-trimethyl-6H-thieno[3,2-f][1,2,4]triazolo[4,3-a][1,4]diazepin-6-yl)-N—((R)-1-(4-((4-(4-(3-(2,4-dihydroxy-5-isopropylphenyl)-5-hydroxy-4H-1,2,4-triazol-4-yl)benzyl)piperazin-1-yl)methyl)phenyl)ethyl)acetamide, trifluoroacetic acid] | < 100 | 
2 | Cc1sc2c(c1C)C(c1ccc(Cl)cc1)=NC(CC(=O)N1CCC(Cc3ccc(CN(C)Cc4ccc(-n5c(C(=O)NCC(F)(F)F)nnc5-c5cc(C(C)C)c(O)cc5O)cc4)cc3)CC1)c1nnc(C)n1-2 (stereo in doubt) [Compound 84, (S)-4-(4-(((4-((1-(2-(4-(4-chlorophenyl)-2,3,9-trimethyl-6H-thieno[3,2-f][1,2,4]triazolo[4,3-a][1,4]diazepin-6-yl)acetyl)piperidin-4-yl)methyl)benzyl)(methyl)amino)methyl)phenyl)-5-(2,4-dihydroxy-5-isopropylphenyl)-N-(2,2,2-trifluoroethyl)-4H-1,2,4-triazole-3-carboxamide, trifluoroacetic acid] | < 100 | 
3 | CCc1cc(-c2nnc(O)n2-c2ccc(CN3CCN(CC4CCN(CC[C@@H]5N=C(c6ccc(Cl)cc6)c6c(sc(C)c6C)-n6c(C)nnc65)CC4)CC3)cc2)c(O)cc1O [Compound 2, 4-(4-(4-((4-((1-(2-((6S)-4-(4-chlorophenyl)-2,3,9-trimethyl-6H-thieno[3,2-f][1,2,4]triazolo[4,3-a][1,4]diazepin-6-yl)ethyl)piperidin-4-yl)methyl)piperazin-1-yl)methyl)phenyl)-5-hydroxy-4H-1,2,4-triazol-3-yl)-6-ethylbenzene-1,3-diol, trifluoroacetic acid] | 100 to 1000 | 
4 | Cc1sc2c(c1C)C(c1ccc(Cl)cc1)=N[C@@H](CC(=O)N1CCC(Cc3ccc(-n4c(O)nnc4-c4cc(C(C)C)c(O)cc4O)cc3)CC1)c1nnc(C)n1-2 [Compound 3, 2-((6S)-4-(4-chlorophenyl)-2,3,9-trimethyl-6H-thieno[3,2-f][1,2,4]triazolo[4,3-a][1,4]diazepin-6-yl)-1-(4-(4-(3-(2,4-dihydroxy-5-isopropylphenyl)-5-hydroxy-4H-1,2,4-triazol-4-yl)benzyl)piperidin-1-yl)ethanone, trifluoroacetic acid] | < 100 | 
5 | Cc1sc2c(c1C)C(c1ccc(Cl)cc1)=N[C@@H](CC(=O)N1CCC(CN3CCN(Cc4ccc(-n5c(O)nnc5-c5ccc(O)cc5O)cc4)CC3)CC1)c1nnc(C)n1-2 [Compound 4, 2-((6S)-4-(4-chlorophenyl)-2,3,9-trimethyl-6H-thieno[3,2-f][1,2,4]triazolo[4,3-a][1,4]diazepin-6-yl)-1-(4-((4-(4-(3-(2,4-dihydroxyphenyl)-5-hydroxy-4H-1,2,4-triazol-4-yl)benzyl)piperazin-1-yl)methyl)piperidin-1-yl)ethanone, trifluoroacetic acid] | 100 to 1000 | 
6 | CCn1c(=O)/c(=C2\Sc3ccccc3N2C)s/c1=C\c1cccc[n+]1CCNC(=O)C[C@@H]1N=C(c2ccc(Cl)cc2)c2c(sc(C)c2C)-n2c(C)nnc21 [Compound 8] |  | IC50 (72 hr, CCK-8): > 1000 nM
7 | CCc1cc(-c2nnc(O)n2-c2ccc(CN3CCN(CC4CCN(C(=O)C[C@@H]5N=C(c6ccc(Cl)cc6)c6c(sc(C)c6C)-n6c(C)nnc65)CC4)CC3)cc2)c(O)cc1O [Compound 10, (S)-2-(4-(4-chlorophenyl)-2,3,9-trimethyl-6H-thieno[3,2-f][1,2,4]triazolo[4,3-a][1,4]diazepin-6-yl)-1-(4-((4-(4-(3-(5-ethyl-2,4-dihydroxyphenyl)-5-hydroxy-4H-1,2,4-triazol-4-yl)benzyl)piperazin-1-yl)methyl)piperidin-1-yl)ethan-1-one hydrochloride] | < 100 | 
8 | CCCc1cc(-c2nnc(O)n2-c2ccc(CN3CCN(CC4CCN(C(=O)C[C@@H]5N=C(c6ccc(Cl)cc6)c6c(sc(C)c6C)-n6c(C)nnc65)CC4)CC3)cc2)c(O)cc1O [Compound 11, (S)-2-(4-(4-chlorophenyl)-2,3,9-trimethyl-6H-thieno[3,2-f][1,2,4]triazolo[4,3-a][1,4]diazepin-6-yl)-1-(4-((4-(4-(3-(2,4-dihydroxy-5-propylphenyl)-5-hydroxy-4H-1,2,4-triazol-4-yl)benzyl)piperazin-1-yl)methyl)piperidin-1-yl)ethan-1-one, trifluoroacetic acid] | < 100 | 
9 | Cc1sc2c(c1C)C(c1ccc(Cl)cc1)=N[C@@H](CC(=O)N1CCC(CN3CCN(Cc4ccc(-n5c(S)nnc5-c5cc(C(C)C)c(O)cc5O)cc4)CC3)CC1)c1nnc(C)n1-2 [Compound 12, 2-((6S)-4-(4-chlorophenyl)-2,3,9-trimethyl-6H-thieno[3,2-f][1,2,4]triazolo[4,3-a][1,4]diazepin-6-yl)-1-(4-((4-(4-(3-(2,4-dihydroxy-5-isopropylphenyl)-5-mercapto-4H-1,2,4-triazol-4-yl)benzyl)piperazin-1-yl)methyl)piperidin-1-yl)ethanone, trifluoroacetic acid] | < 100 | 
10 | Cc1sc2c(c1C)C(c1ccc(Cl)cc1)=N[C@@H](CC(=O)N1CCC(CN3CCN(Cc4ccc(-n5c(C(=O)NCC(F)(F)F)nnc5-c5cc(C(C)C)c(O)cc5O)cc4)CC3)CC1)c1nnc(C)n1-2 [Compound 13, 4-(4-((4-((1-(2-((6S)-4-(4-chlorophenyl)-2,3,9-trimethyl-6H-thieno[3,2-f][1,2,4]triazolo[4,3-a][1,4]diazepin-6-yl)acetyl)piperidin-4-yl)methyl)piperazin-1-yl)methyl)phenyl)-5-(2,4-dihydroxy-5-isopropylphenyl)-N-(2,2,2-trifluoroethyl)-4H-1,2,4-triazole-3-carboxamide] | < 100 | 
11 | CCc1cc(-c2nnc(C(=O)NCC(F)(F)F)n2-c2ccc(CN3CCN(CC4CCN(C(=O)C[C@@H]5N=C(c6ccc(Cl)cc6)c6c(sc(C)c6C)-n6c(C)nnc65)CC4)CC3)cc2)c(O)cc1O [Compound 14, 4-(4-((4-((1-(2-((6S)-4-(4-chlorophenyl)-2,3,9-trimethyl-6H-thieno[3,2-f][1,2,4]triazolo[4,3-a][1,4]diazepin-6-yl)acetyl)piperidin-4-yl)methyl)piperazin-1-yl)methyl)phenyl)-5-(5-ethyl-2,4-dihydroxyphenyl)-N-(2,2,2-trifluoroethyl)-4H-1,2,4-triazole-3-carboxamide, trifluoroacetic acid] |  | IC50 (Homo sapiens, MV4-11, 72 h): < 100 nM
12 | Cc1cc(-c2nnc(C(=O)NCC(F)(F)F)n2-c2ccc(CN3CCN(CC4CCN(C(=O)C[C@@H]5N=C(c6ccc(Cl)cc6)c6c(sc(C)c6C)-n6c(C)nnc65)CC4)CC3)cc2)c(O)cc1O [Compound 15, 4-(4-((4-((1-(2-((6S)-4-(4-chlorophenyl)-2,3,9-trimethyl-6H-thieno[3,2-f][1,2,4]triazolo[4,3-a][1,4]diazepin-6-yl)acetyl)piperidin-4-yl)methyl)piperazin-1-yl)methyl)phenyl)-5-(2,4-dihydroxy-5-methylphenyl)-N-(2,2,2-trifluoroethyl)-4H-1,2,4-triazole-3-carboxamide, trifluoroacetic acid] | < 100 | 
